Assay results as given in article PMC9506420, “Biological Evaluation of 3-Azaspiro[Bicyclo[3.1.0]Hexane-2,5′-Pyrimidines] as Potential Antitumor Agents” (International Journal of Molecular Sciences, 2022).
Read-outs that look alike come from different tables or passages of the source.

Tests used:
[1] = system: African green monkey kidney epithelial (Vero) cell line; experiment: MTS antiproliferative (cytotoxicity) assay, Vero (reference); format: cell-based; details: Chlorocebus sabaeus, Vero
Procedure: (§1) The cytotoxicity of synthesized 3-azaspiro[bicyclo[3.1.0]hexane-2,5′-pyrimidines] 4 against human erythroleukemia (K562), cervical carcinoma (HeLa), and T lymphocyte (Jurkat), as well as mouse colon carcinoma (CT26) and African green monkey kidney epithelial (Vero) cell lines as reference, was evaluated in vitro by the standard MTS assay for 24 and 72 h.
(§2) All the cell lines (human cervical carcinoma (HeLa), erythroleukemia (K-562), and T lymphocyte (Jurkat) as well as mouse colon carcinoma (CT26) and African green monkey kidney epithelial (Vero)) were obtained from the cell repository “Vertebrate cell culture collection” (supported by the Ministry of Science and Higher Education of the Russian Federation, agreement №075-15-2021-683, Institute of Cytology, Russian Academy of Sciences, Saint Petersburg, Russia). HeLa, Jurkat, and Vero cells were cultured in DMEM (HyClone, South Logan, UT, USA) supplemented with 10% (v/v) fetal bovine serum (Hyclone, GE Healthcare Life Sciences, Logan, UT, USA), and gentamicin (Sigma-Aldrich, St. Louis, MO, USA) at 37 °C in a humidified atmosphere with 5% CO2. K-562 and CT26 cells were grown at RPMI medium (Hyclone, GE Healthcare Life Sciences, Logan, UT, USA), with the same supplements and conditions.
(§3) To evaluate the in vitro toxicity of compounds synthesized, cells were seeded into 96-well plates at a density of 5 × 10^3 cells per well. On the next day, tested compounds were added to the wells at concentrations ranging from […], followed by incubation for 1 and 3 days. Cell proliferation was determined by adding 20 μL of MTS reagent (BioVision, Milpitas, CA, USA) stock solution per well. Each plate was incubated for 2 h at 37 °C in a humidified, 5% CO2 atmosphere. The plates were then read at 495 nm using plate spectrophotometer (Multiskan GO, Thermo Fisher Scientific, Waltham, MA, USA). All samples were measured in triplicates.

CT26 cells [2] = experiment: Cell cycle distribution by flow cytometry (propidium iodide), CT26; format: cell-based, mouse; details: for SubG1 (%) / G2/M (%) / S (%) / G0/G1 (%): CT26, 10 μg/mL, 24 h; for SubG1 (%): control 3.6 ± 0.6; for G2/M (%): control 12.3 ± 0.9; for S (%): control 40.1 ± 1.5; for G0/G1 (%): control 44.0 ± 1.7; for cytostatic effect (cell cycle), CT26: CT26 cell line
Procedure: (§4) One of the indicators of the influence of biologically active products on the cells is the changed distribution of cells during different stages of the cell cycle. In this work, recently synthesized compounds were tested using flow cytometry for their effect on the distribution of cells in the cell cycle (G0/G1, G2/M, and S). Figure 8, Figure 9 and Figure 10 and Table 3 show the typical data after processing the results from three replicates of each experiment.
(§5) The distribution of HeLa and CT26 cells in the G0/G1-, S-, and G2/M-phases of the cell cycle was obtained by quantification of DNA content in propidium-iodide-stained cells using flow cytometry. Briefly, cells were seeded in 24-well plates at a density of 5 × 10^4 cells per well. After 24 h incubation, cells were exposed to 10 μg/mL of compounds 4c–i (the structure is provided in Scheme 1) for 24 h. The effects of compounds 4d, 4e, 4g, 4h were additionally tested at concentrations of 2 and 5 μg/mL. After incubation with drugs, the cells were detached by exposure to trypsin-EDTA for 5 min at 37 °C and then collected by pipetting. This was followed by treatment with 0.2 mg/mL saponin (Fluka, Waltham, MA, USA), 0.25 mg/mL RNase (Sigma-Aldrich, St. Louis, MO, USA), and 0.05 mg/mL propidium iodide (Invitrogen, Carlsbad, CA, USA). After washing, the samples were analyzed by standard flow cytometer (BD FACSCanto II, Becton Dickinson, San Jose, CA, USA). Then, 10,000 events were acquired for the sample. Data processing was performed using BD FACSDiva 9.0 software.

HeLa cells = experiment: Cell cycle distribution by flow cytometry (propidium iodide), HeLa; format: cell-based, human; details: HeLa, 10 μg/mL, 24 h; for SubG1 (%): control 2.3 ± 0.4; for G2/M (%): control 12.2 ± 1.3; for S (%): control 12.5 ± 1.7; for G0/G1 (%): control 73.1 ± 2.6
Procedure: as §4, §5

[3] = system: mouse colon carcinoma (CT26) cell line; experiment: MTS antiproliferative (cytotoxicity) assay, CT26; format: cell-based; details: for SI (selectivity index), CT26: Vero as reference cell line; for IC50: Mus musculus
Procedure: as §1, §2, §3

[4] = system: human T lymphocyte (Jurkat) cell line; experiment: MTS antiproliferative (cytotoxicity) assay, Jurkat; format: cell-based; details: for IC50: Homo sapiens, MTS; for SI (selectivity index), Jurkat: Vero as reference cell line
Procedure: The cytotoxicity of synthesized 3-azaspiro[bicyclo[3.1.0]hexane-2,5′-pyrimidines] 4 against human erythroleukemia (K562), cervical carcinoma (HeLa), and T lymphocyte (Jurkat), as well as mouse colon carcinoma (CT26) and African green monkey kidney epithelial (Vero) cell lines as reference, was evaluated in vitro by the standard MTS assay for 24 and 72 h. The results are presented in Figure 1, Figure 2, Figure 3, Figure 4 and Figure 5 (data on all, tested on K562, HeLa, and CT26 cell lines’ compounds, are given at SI, Figures S1–S3). […] Replacement of the phenyl group by either the carboxymethyl or N-isopropylcarbamoyl group has led to a significant decrease in the activity of spiro-fused cycloadducts comprising azabicyclo[3.1.0]hexane and alloxane moieties.
as §2, §3

[5] = system: human cervical carcinoma (HeLa) cell line; experiment: MTS antiproliferative (cytotoxicity) assay, HeLa; format: cell-based; details: HeLa; for SI (selectivity index), HeLa: Vero as reference cell line; for IC50: Homo sapiens
Procedure: as §1, §2, §3

CT26 cells [6] = experiment: Annexin V-FITC/DAPI cell death analysis, CT26; format: cell-based, mouse; details: CT26, 10 μg/mL, 72 h; for Necrotic Cells, %: control 0.0 ± 0.0; for Late Apoptotic Cells, %: control 0.9 ± 0.4; for Early Apoptotic Cells, %: control 10.5 ± 0.7; for Live Cells, %: control 88.5 ± 1.1
Procedure: The results of cell death detection after the exposure of the HeLa and CT26 cell lines to spiro-fused cycloadducts 4c–i at a dose of 10 μg/mL for 72 h, using Annexin V-FITC/DAPI staining, are shown in Figure 6 and Figure 7, respectively.
Cells were seeded in 24-well plates, 5 × 10^4 cells per well. After 24 h incubation, cells were treated with compounds 4c–i for 72 h. Then, cells were washed, harvested by trypsinisation, stained with Annexin V-FITC ([…]) and DAPI (Thermo Fisher Scientific, Waltham, MA, USA), in accordance with the protocol of the manufacturer, and analyzed by flow cytometry. The proapoptotic effect of azaspiro[bicyclo[3.1.0]hexane-2,5′-pyrimidines] 4c–i was evaluated by an Annexin V-FITC/DAPI (AV/DAPI) dual-staining assay to examine the occurrence of phosphatidylserine externalization, which facilitated the detection of live cells (lower-left quadrant; AV−/DAPI−), early apoptotic cells (upper-left quadrant; AV+/DAPI−), late apoptotic cells (upper-right quadrant; AV+/DAPI+), and necrotic cells (lower-right quadrant; AV−/DAPI+).

[7] = 24 h, read-out: IC50, Vero, 24 h
[8] = 72 h, read-out: IC50, Vero, 72 h
[9] = CT26, 24 h, read-out: IC50, CT26, 24 h
[10] = CT26, 72 h, read-out: IC50, CT26, 72 h
[11] = 24 h, read-out: IC50, Jurkat, 24 h
[12] = 72 h, read-out: IC50, Jurkat, 72 h
[13] = 24 h, read-out: IC50, HeLa, 24 h
[14] = 72 h, read-out: IC50, HeLa, 72 h

CSCC[C@@H]1NC2(C(=O)NC(=O)NC2=O)[C@]2(c3ccccc3)[C@@H](c3ccccc3)[C@]12c1ccccc1 [Compound 4h]
IC50 [1, 7]: 31 ± 4 µM | IC50 [1, 8]: 22 ± 4 µM | SubG1 (%) (CT26 cells [2]): 10.8 ± 2.3 % | G2/M (%) (CT26 cells [2]): 18.9 ± 6.8 % | S (%) (CT26 cells [2]): 32.0 ± 0.6 % | G0/G1 (%) (CT26 cells [2]): 38.3 ± 7.9 % | cytostatic effect (cell cycle), CT26 (CT26 cells [2]): best effect | SubG1 (%) (HeLa cells): 9.9 ± 7.8 % | G2/M (%) (HeLa cells): 12.6 ± 0.8% | S (%) (HeLa cells): 13.9 ± 1.8% | G0/G1 (%) (HeLa cells): 63.6 ± 6.8 % | SI (selectivity index), CT26 [3]: 1.4 | IC50 [3, 9]: 22 ± 2 µM | IC50 [3, 10]: 16 ± 2 µM | IC50 [4, 11]: 18 ± 4 µM | IC50 [4, 12]: 13 ± 4 µM | SI (selectivity index), Jurkat [4]: 1.7 | SI (selectivity index), HeLa [5]: 1.0 | IC50 [5, 13]: 28 ± 2 µM | IC50 [5, 14]: 24 ± 6 µM | Necrotic Cells, % (CT26 cells [6]): 0.9 ± 0.3 % | Late Apoptotic Cells, % (CT26 cells [6]): 24.0 ± 0.7 % | Early Apoptotic Cells, % (CT26 cells [6]): 4.8 ± 0.5 % | Live Cells, % (CT26 cells [6]): 70.3 ± 0.6 %

O=C1NC(=O)C2(N[C@@H](c3ccccc3)[C@@]3(c4ccccc4)[C@H](c4ccccc4)[C@@]23c2ccccc2)C(=O)N1 [Compound 4i]
IC50 [1, 7]: 97 ± 12 µM | IC50 [1, 8]: 23 ± 4 µM | SubG1 (%) (CT26 cells [2]): 7.2 ± 2.2 % | G2/M (%) (CT26 cells [2]): 22.4 ± 1.7 % | S (%) (CT26 cells [2]): 37.2 ± 0.2 % | G0/G1 (%) (CT26 cells [2]): 33.2 ± 0.6 % | cytostatic effect (cell cycle), CT26 (CT26 cells [2]): best effect | SubG1 (%) (HeLa cells): 20.1 ± 1.3 % | G2/M (%) (HeLa cells): 9.9 ± 0.8 % | S (%) (HeLa cells): 18.1 ± 2.4 % | G0/G1 (%) (HeLa cells): 51.8 ± 4.0 % | SI (selectivity index), CT26 [3]: 2.0 | IC50 [3, 9]: 16 ± 2 µM | IC50 [3, 10]: 12 ± 2 µM | IC50 [4, 11]: 19 ± 2 µM | IC50 [4, 12]: 14 ± 4 µM | SI (selectivity index), Jurkat [4]: 1.7 | SI (selectivity index), HeLa [5]: 2.0 | IC50 [5, 13]: 10 ± 2 µM | IC50 [5, 14]: 12 ± 6 µM | Necrotic Cells, % (CT26 cells [6]): 0.4 ± 0.1 % | Late Apoptotic Cells, % (CT26 cells [6]): 19.5 ± 0.5 % | Early Apoptotic Cells, % (CT26 cells [6]): 4.0 ± 0.1 % | Live Cells, % (CT26 cells [6]): 76.2 ± 0.3 %
